pIC50: −log10 of the molar value. Blank lines part the entries; values can stand above or below the compound they belong to.
Experiments:
Assay type in all cases: biochemical
CDK4 [1] = target: T1, CDK4 (Homo sapiens, UniProt P11802); experiment: mobility shift kinase assay, % inhibition at […]
CDK4 [2] = target: T1, CDK4; experiment: mobility shift kinase assay, % inhibition at […]; remark: listed apart in the source
CDK4 [3] = target: T1, CDK4; experiment: mobility shift kinase assay ([…] CDK4, […] ATP, FAM-P8)
Pim1 = Pim1 (Homo sapiens, UniProt P11309); experiment: mobility shift kinase assay ([…] Pim1, […] ATP, FAM-P20)
Pim1, sequence (P11309 whole entry): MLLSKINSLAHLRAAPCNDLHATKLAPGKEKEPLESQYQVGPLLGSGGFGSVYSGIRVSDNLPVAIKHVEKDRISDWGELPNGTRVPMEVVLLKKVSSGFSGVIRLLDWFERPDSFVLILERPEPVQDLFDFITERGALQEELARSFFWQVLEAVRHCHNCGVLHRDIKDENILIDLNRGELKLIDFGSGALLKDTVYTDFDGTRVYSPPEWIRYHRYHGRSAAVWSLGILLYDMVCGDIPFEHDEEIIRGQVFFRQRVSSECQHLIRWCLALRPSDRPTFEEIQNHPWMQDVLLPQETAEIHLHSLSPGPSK

T1 sequence (P11802 2-303): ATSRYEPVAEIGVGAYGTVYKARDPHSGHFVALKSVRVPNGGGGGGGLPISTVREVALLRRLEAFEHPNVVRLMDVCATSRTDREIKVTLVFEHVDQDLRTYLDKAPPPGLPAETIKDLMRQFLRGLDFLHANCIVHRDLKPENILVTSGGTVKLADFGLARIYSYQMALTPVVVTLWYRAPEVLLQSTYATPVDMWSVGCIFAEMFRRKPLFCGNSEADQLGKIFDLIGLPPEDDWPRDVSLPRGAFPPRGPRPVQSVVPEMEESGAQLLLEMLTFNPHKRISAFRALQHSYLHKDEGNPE
T1 sequence (P30281 whole entry partner): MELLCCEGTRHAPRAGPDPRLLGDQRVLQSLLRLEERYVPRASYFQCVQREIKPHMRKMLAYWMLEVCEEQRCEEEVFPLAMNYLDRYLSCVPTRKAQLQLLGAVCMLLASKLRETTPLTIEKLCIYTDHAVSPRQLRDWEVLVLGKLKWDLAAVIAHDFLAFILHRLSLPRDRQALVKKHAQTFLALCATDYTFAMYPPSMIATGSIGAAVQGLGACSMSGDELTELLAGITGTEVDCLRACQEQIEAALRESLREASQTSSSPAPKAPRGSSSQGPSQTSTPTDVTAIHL

% inhibition at 10 μM (CDK4 [1]): 57.8 ± 5.0
Compound: O=C1N=c2ccccc2=C1c1s/c(=N\N=C2\C(=O)Nc3ccccc32)n(-c2ccc(O)cc2)c1O [AF-399/37285031]

Inhibition for CDK4 at 100 μM (%) (CDK4 [2]): 90.74 ± 1.28
Compound: CC(C)n1cc(C(N)=O)c2cnc(Nc3ccc(N4CCNCC4)cc3)nc21 [MJ-115]

pIC50 (CDK4 [3]): 4.60
pIC50 (Pim1): 8.02
Compound: Oc1ccc(-c2ccc3nnc(-c4ccc5cccc(OC6CCNCC6)c5n4)n3c2)cc1 [MJ-1055]

— article PMC7278228, “Chemical space exploration based on recurrent neural networks: applications in discovering kinase inhibitors” (Journal of Cheminformatics, 2020)
